Reference: PubChem BioAssay (NCI)
“And” between values parts separate entries of the source, which are not always exact repeats. Equal values may be shown once.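 Step 1: Grow cells in 96-well plates. Step 2: Expose to compound for 48 hours at 5 concentrations. Step 3: Interpolate endpoints linearly; if unreached, use highest concentration. The concentration for 50% growth inhibition is given as GI50. The concentration for full growth arrest is given as TGI.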

What was measured:
Assay in all cases: DTP human tumour cell line panel, 48 h
RXF 393 renal = tested on: RXF 393 renal
SK-MEL-28 melanoma = tested on: SK-MEL-28 melanoma
PC-3 prostate = tested on: PC-3 prostate
HS 578T breast = tested on: HS 578T breast
MOLT-4 leukemia = tested on: MOLT-4 leukemia
OVCAR-5 ovarian = tested on: OVCAR-5 ovarian
NCI-H226 lung = tested on: NCI-H226 lung
NCI-H23 lung = tested on: NCI-H23 lung
A549 NSCLC = tested on: A549 NSCLC
HOP-92 NSCLC = tested on: HOP-92 NSCLC
IGROV1 ovarian = tested on: IGROV1 ovarian
SR leukemia = tested on: SR leukemia
SF-268 CNS = tested on: SF-268 CNS
SNB-19 CNS = tested on: SNB-19 CNS
HCT-15 colon = tested on: HCT-15 colon
KM12 colon = tested on: KM12 colon
MCF7 breast = tested on: MCF7 breast
CCRF-CEM leukemia = tested on: CCRF-CEM leukemia
HCT-116 colon = tested on: HCT-116 colon
NCI-H460 lung = tested on: NCI-H460 lung
SW-620 colon = tested on: SW-620 colon
NCI-H522 lung = tested on: NCI-H522 lung
HL-60(TB) leukemia = tested on: HL-60(TB) leukemia
UACC-257 melanoma = tested on: UACC-257 melanoma
K-562 leukemia = tested on: K-562 leukemia
ACHN renal = tested on: ACHN renal
OVCAR-8 ovarian = tested on: OVCAR-8 ovarian
MALME-3M melanoma = tested on: MALME-3M melanoma
HCC-2998 colon = tested on: HCC-2998 colon

## O=c1[nH][nH]c(=O)c2c(O)c(-c3ccccc3)ncc12
RXF 393 renal
  GI50: 27.8 µM and 44.9 µM
  TGI: 62 µM and 187 µM
SK-MEL-28 melanoma
  GI50: 31.9 µM and 40.4 µM
  TGI: > 1000 µM
PC-3 prostate
  GI50: 44.5 µM and 143 µM
  TGI: 662 µM
HS 578T breast
  GI50: 40.3 µM and 40.2 µM
  TGI: 672 µM
MOLT-4 leukemia
  GI50: 35 µM and 173 µM
  TGI: > 1000 µM
OVCAR-5 ovarian
  GI50: 60 µM and 160 µM
  TGI: 832 µM
NCI-H226 lung
  GI50: 25.2 µM and 135 µM
  TGI: 52.6 µM and 463 µM
NCI-H23 lung
  GI50: 75.9 µM and 194 µM
  TGI: 827 µM
A549 NSCLC
  GI50: 57.7 µM and 325 µM
  TGI: 807 µM
HOP-92 NSCLC
  GI50: 30.4 µM and 50.1 µM
  TGI: 91.2 µM and 277 µM
IGROV1 ovarian
  GI50: 247 µM
  TGI: 835 µM
SR leukemia
  GI50: 39.6 µM and 118 µM
  TGI: 554 µM
SF-268 CNS
  GI50: 35 µM and 71.3 µM
  TGI: > 1000 µM
SNB-19 CNS
  GI50: 47.6 µM and 71.6 µM
  TGI: 841 µM
HCT-15 colon
  GI50: 57.5 µM and 185 µM
  TGI: > 1000 µM
KM12 colon
  GI50: 34.2 µM and 53.1 µM
  TGI: 482 µM
MCF7 breast
  GI50: 47 µM and 199 µM
  TGI: > 1000 µM
CCRF-CEM leukemia
  GI50: 35.2 µM and 55.1 µM
  TGI: 894 µM
HCT-116 colon
  GI50: 55 µM and 132 µM
  TGI: 405 µM
NCI-H460 lung
  GI50: 55.6 µM and 146 µM
  TGI: 634 µM
SW-620 colon
  GI50: 45.8 µM and 188 µM
  TGI: 891 µM
NCI-H522 lung
  GI50: 42.3 µM and 70.2 µM
  TGI: 376 µM
HL-60(TB) leukemia
  GI50: 74.4 µM and 174 µM
  TGI: 553 µM
UACC-257 melanoma
  GI50: 46.2 µM and 272 µM
  TGI: 871 µM
K-562 leukemia
  GI50: 219 µM
  TGI: > 1000 µM
ACHN renal
  GI50: 182 µM
  TGI: 845 µM
OVCAR-8 ovarian
  GI50: 37 µM and 64.6 µM
  TGI: 649 µM
MALME-3M melanoma
  GI50: 30.1 µM and 54.4 µM
  TGI: 278 µM
HCC-2998 colon
  GI50: 34.9 µM and 103 µM
  TGI: 642 µM
